# According to patent publication US20080102275A1, “Method For Coating Powders” (priority 2004, published 2008):
# Legend:
# [1] = release/dissolution test of pseudoephedrine particles in distilled water, quantitative determination by UV spectrophotometry; type: physicochemical; conditions: ambient temperature, FIG. 18
# [2] = release/dissolution test of BSA particles in distilled water, quantitative determination by UV spectrophotometry; type: physicochemical; conditions: ambient temperature, FIG. 19
# Experimental: This time, a heat-sensitive protein, BSA (Bovine Serum Albumin), the mean diameter of which, measured by particle size determination, is 85.6 μm, is coated according to FIG. 2 of the process according to the present invention. 3 g of BSA are placed in the system for injection by CO2 and 3 g of Precirol® are placed in the autoclave. The supercritical medium conditions are 110 bar and 50° C. for a dissolution time of 30 minutes. The pressure for injection of the BSA particles is 80 bar. Once coinjection has been carried out, the coated particles are quantitatively determined by UV spectrophotometry (FIG. 19). While the crude BSA is completely dissolved in distilled water at ambient temperature after 5 minutes, the protein coated with Precirol® (BSA 1 test) for its part takes close to 30 minutes in order to be completely dissolved in distilled water at ambient temperature.
Molecule,time to complete dissolution [1] [min],time to complete dissolution [2] [min]
"CN[C@@H](C)[C@@H](O)c1ccccc1 [crude pseudoephedrine, pseudoephedrine]",10,–
"crude BSA: heat-sensitive protein, BSA (Bovine Serum Albumin), uncoated",–,5
